From patent US20070243217A1, “Film-Shaped Medicament for Oral Administration Containing Estriol” (HF Arzneimittelforschung GmbH, priority 2004, published 2007)

Assays:
[1] = Changes of the oral mucosa on buccal or sublingual administration of estriol; type: in vivo
[2] = Estriol levels in the blood over time with the same treatment and dose; type: in vivo; conditions: vaginal application
Description: Thus, even in the case of long-term use, there should be no unwanted absorption conditions at the oral mucosa as the application site that show a change for the worse, provided that the treatment of the climacteric complaints is carried out using a film-shaped medicament according to the invention.

C[C@]12CC[C@@H]3c4ccc(O)cc4CC[C@H]3[C@@H]1C[C@@H](O)[C@@H]2O [estriol, (16α, 17β)-estra-1,3,5(10)-triene-3,16,17-triol]
changes of the oral mucosa analogous to proliferation and hornification of the upper cell layers in the vagina [1]: no changes of the oral mucosa | estriol levels in the blood after some time [2]: drop measurably after some time
